Laboratory results from ChEMBL document CHEMBL4699652, “Proline Hinged Amphipathic α-Helical Peptide Sensitizes Gram-Negative Bacteria to Various Gram-Positive Antibiotics” (J Med Chem, 2020).
Calls of active or inactive are those of the source. The rule behind the calls is not given here.

How the values were obtained:
Cell membrane [1] = test: Induction of outer membrane re-arragenemnts in Escherichia coli D21f2 incubated for 4 mins by NPN uptake assay; type: subcellular
Cell membrane [2] = test: Induction of outer membrane permeability in Escherichia coli assessed as periplasmic-beta-lactamase release at 5 uM using CENTA; type: subcellular
Erythrocyte = test: Hemolytic activity in human red blood cells assessed as induction of hemoglobin release incubated for 4 hrs by microplate reader based assay; type: cell-based
Cell membrane [3] = test: Induction of inner membrane permeability in Escherichia coli at 5 uM incubated for 1 hr by SYTOX Green-staining based flow cytometry analysis; type: subcellular
Staphylococcus aureus = test: Antimicrobial activity against Staphylococcus aureus ATCC 29213 assessed as inhibition of bacterial growth incubated for 18 hrs by CLSI based method; type: functional
Cell membrane [4] = test: Induction of inner membrane permeability in Escherichia coli assessed as cytoplasmic beta-galactosidase release at 5 uM using ONPG
Cell membrane [5] = test: Induction of outer membrane re-arragenemnts in Escherichia coli ATCC 25922 incubated for 4 mins by NPN uptake assay; type: subcellular
Escherichia coli [6] = test: Antimicrobial activity against Escherichia coli ATCC 25922 assessed as inhibition of bacterial growth incubated for 18 hrs by CLSI based method; type: functional
Cell membrane [7] = test: Induction of membrane permeability in Escherichia coli assessed as increase in fine surface roughness at 25 uM by atomic force microscopy; type: subcellular
Escherichia coli [8] = test: Antimicrobial activity against Escherichia coli ATCC 25922 assessed as reduction in cell viability at 10 to 10000 uM by propidium iodide staining based assay; type: functional, organism-based; settings: dose microM 10-10000
Cell membrane [9] = test: Induction of cell membrane fluidity changes in Escherichia coli ATCC 25922 by Laurdan-dye based fluorescence assay; type: subcellular
Escherichia coli [10] = test: Induction of cell killing in Escherichia coli assessed as time needed for bacterial destruction at 128 ug/ml; type: functional; settings: dose 128 µg/ml
[11] = Induction of cell membrane permeability in POPE/POPG assessed as calcein leakage at 2 to 8 uM; settings: dose microM 2-8
Escherichia coli [12] = test: Induction of cell lysis in Escherichia coli at 5 uM by transmission electron microscopy; type: functional, organism-based
Escherichia coli [13] = test: Binding affinity to inner membrane using POPE/POPG (7/3) by SPR assay
Escherichia coli [14] = test: Binding affinity to cell membrane using POPC/cholesterol (8/2) by SPR assay
Escherichia coli [15] = test: Binding affinity to outer membrane in POPE/POPG lipid layers containing LPS by SPR assay

| Compound | Activity (Cell membrane [1]) | Activity (Cell membrane [2]) | HC10 (Erythrocyte) | Activity (Cell membrane [3]) | MIC (Staphylococcus aureus) | Activity (Cell membrane [4]) | Activity (Cell membrane [5]) | MIC (Escherichia coli [6]) | further results |
| --- | --- | --- | --- | --- | --- | --- | --- | --- | --- |
| Ac-KLLKLPKKLLKLLK-NH2 | inactive | inactive | 640 µM | inactive | > 80 µM | inactive | Active | ≥ 80 µM |  |
| Ac-LKKLPKLSKKLLKL-NH2 |  |  | 80 µM |  | 10 µM |  |  | 2.5 µM |  |
| Ac-KLPKLLKKLLKLLK-NH2 |  |  | 10 µM |  | 10 µM |  |  | 10 µM |  |
| H-KLAKLAKKPLKLAK-OH | inactive | inactive |  | inactive |  | inactive | Active |  | Activity (Cell membrane [7]): inactive |
| COLISTIN | inactive | inactive |  | inactive |  | inactive | Active |  | Activity (Escherichia coli [8]): Active; Activity (Cell membrane [9]): Active |
| Ac-LKKLLPLLKKLLKL-NH2 |  |  | 1.25 µM |  | 2.5 µM |  |  | 10 µM |  |
| CC[C@H](C)[C@H](NC(=O)CN)C(=O)NCC(=O)N[C@@H](C)C(=O)N[C@H](C(=O)N[C@@H](CC(C)C)C(=O)N[C@@H](CCCCN)C(=O)N[C@H](C(=O)N[C@@H](CC(C)C)C(=O)N[C@H](C(=O)N[C@H](C(=O)NCC(=O)N[C@@H](CC(C)C)C(=O)N1CCC[C@H]1C(=O)N[C@@H](C)C(=O)N[C@@H](CC(C)C)C(=O)N[C@H](C(=O)N[C@@H](CO)C(=O)N[C@@H](Cc1c[nH]c2ccccc12)C(=O)N[C@H](C(=O)N[C@@H](CCCCN)C(=O)N[C@@H](CCCNC(=N)N)C(=O)N[C@@H](CCCCN)C(=O)N[C@@H](CCCNC(=N)N)C(=O)N[C@@H](CCC(N)=O)C(=O)N[C@@H](CCC(N)=O)C(N)=O)[C@@H](C)CC)[C@@H](C)CC)[C@@H](C)O)[C@@H](C)O)C(C)C)C(C)C [MELITTIN] | inactive | inactive |  | inactive |  | inactive | Active |  | Time (Escherichia coli [10]): 4 h |
| Ac-KLLKLLKKLLKLPK-NH2 |  |  | 40 µM |  | 10 µM |  |  | 10 µM |  |
| Ac-KLLKLLPKLLKLLK-NH2 |  |  | 5 µM |  | 5 µM |  |  | 10 µM |  |
| Ac-KLLKPLKKLLKLLK-NH2 |  |  | 80 µM |  | 20 µM |  |  | 20 µM |  |
| Ac-LKKLLKLPKKLLKL-NH2 | inactive | inactive | 640 µM | inactive | > 80 µM | inactive | Active | 40 µM |  |
| Ac-LKKLLKLLKKLLKL-NH2 |  |  | 5 µM |  | 10 µM |  |  | 10 µM |  |
| Ac-KLLKLLKKLLKPLK-NH2 |  |  | 40 µM |  | 10 µM |  |  | 20 µM |  |
| Ac-LKKLLKLLPKLLKL-NH2 | inactive | inactive | 5 µM | inactive | 2.5 µM | inactive | Active | 5 µM | Activity [11]: inactive; Activity (Escherichia coli [12]): Active |
| Ac-LKKLLKPLKKLLKL-NH2 |  |  | 160 µM |  | 20 µM |  |  | 20 µM |  |
| Ac-KPLKLLKKLLKLLK-NH2 |  |  | 5 µM |  | 5 µM |  |  | 5 µM |  |
| Ac-KLLKLLKPLLKLLK-NH2 |  |  | 2.5 µM |  | 2.5 µM |  |  | 10 µM |  |
| Ac-LKKLLKLLKKLPKL-NH2 | inactive | inactive | 40 µM | inactive | 10 µM | inactive | Active | 5 µM | Activity [11]: inactive; Activity (Escherichia coli [12]): Active; Activity (Escherichia coli [13]): Active; Activity (Escherichia coli [14]): inactive; Activity (Escherichia coli [15]): inactive |
| H-LKKLLKLLKKPLKL-NH2 | inactive | inactive | 320 µM | inactive | 40 µM | inactive | Active | 20 µM |  |
| Ac-KLLKLLKKLPKLLK-NH2 |  |  | 80 µM |  | 40 µM |  |  | 40 µM |  |
| Ac-LKKPLKLGKKLLKL-NH2 |  |  | 160 µM |  | 40 µM |  |  | 5 µM |  |
| Ac-KLLKLLKKLLKLLK-NH2 |  |  | 0.625 µM |  | 10 µM |  |  | 20 µM |  |
| Ac-LKKLLKLLKPLLKL-NH2 |  |  | 5 µM |  | 2.5 µM |  |  | 5 µM |  |
